Assay results from US3983230A, “Antibiotic siomycin A derivatives and production thereof” (priority 1973, dated 1976).
≈ marks a conversion by molar mass, not a printed value. Read-outs that look alike come from different tables or passages of the source.

What was measured:
Bacillus anthracis = assay type: cell-based
[1] = system: Streptococcus pyogenes C-203; experiment: Therapeutic effect in mice infected with Streptococcus pyogenes C-203; assay type: in vivo; settings: i.p. infection with Streptococcus pyogenes C-203, subcutaneous at 0, 4 and 8 hours, survival 7 days
Experimental: (§1) The therapeutic effect of sodium salts of the half ester of siomycin A with dicarboxylic acid in mice against experimental infections are shown in Table 3.
(§2) A group of 10 mice weighing 19-21 g were infected with a standardized inoculum of Diplococcus pneumoniae type or Streptococcus pyogenes C-203 by intraperitoneal injection.
(§3) The sodium salts of half esters of siomycin A with the dicarboxylic acid were administered subcutaneously to the mice at 0, 4 and 8 hours after infection and survival of infected mice was examined for 7 days after infection.

gram-positive bacteria = experiment: Antibacterial activity against gram-positive bacteria; assay type: cell-based
From the text: The half esters of siomycin A and salts thereof show activities against a variety of microorganisms.

[2] = background, cited from earlier work
[3] = system: Diplococcus pneumoniae type I; experiment: Minimum inhibitory concentration, Diplococcus pneumoniae type I; assay type: cell-based
[4] = system: Staphylococcus aureus FDA 219PJC-1; experiment: Minimum inhibitory concentration, Staphylococcus aureus FDA 219PJC-1; assay type: cell-based
[5] = system: Diplococcus pneumoniae type I; experiment: Therapeutic effect in mice infected with Diplococcus pneumoniae type I; assay type: in vivo; settings: i.p. infection with Diplococcus pneumoniae type I, subcutaneous at 0, 4 and 8 hours, survival 7 days
Experimental: as §1, §2, §3

[6] = system: Bacillus subtilis PCI 219; experiment: Minimum inhibitory concentration, Bacillus subtilis PCI 219; assay type: cell-based
[7] = Qualitative solubility in various solvents (text, Examples)
[8] = system: Staphylococcus aureus 80257; experiment: Minimum inhibitory concentration, Staphylococcus aureus 80257; assay type: cell-based
[9] = Solubility in 0.1% aqueous sodium hydrogencarbonate (distilled water for sodium salts), Table 1; assay type: physicochemical; settings: 0.1% aqueous solution of sodium hydrogencarbonate
From the text: The solubility in various solvents of several specific products obtained by the process of the present invention are shown in Table 1 in comparison with the solubility of siomycin A.

[10] = system: Streptococcus pyogenes C-203; experiment: Minimum inhibitory concentration, Streptococcus pyogenes C-203; assay type: cell-based

Structure (SMILES): C=C(NC(=O)C(=C)NC(=O)c1csc(C2=N[C@@H]3c4csc(n4)[C@H]4NC(=O)c5csc(n5)[C@H]([C@](C)(O)[C@@H](C)O)NC(=O)[C@H]5CSC(=N5)/C(=C/C)NC(=O)[C@H]([C@@H](C)O)NC(=O)c5csc(n5)[C@]3(CC2)NC(=O)[C@H](C)NC(=O)C(=C)NC(=O)C(=C)NC(=O)[C@H](C(C)C)N[C@@H]2C=Cc3c([C@H](C)O)cc(nc3[C@H]2O)C(=O)O[C@@H]4C)n1)C(N)=O [Siomycin A, siomycin A]
- Minimum inhibitory concentration (Bacillus anthracis): 0.78 µg/mL (≈ 0.473 µM)
- ED50 [1]: 75.2 mg/kg
- minimum inhibitory concentration against gram-positive bacteria (gram-positive bacteria): 0.1 to 0.78 µg/mL
- Solubility ([2]; butanol): slightly soluble
- Solubility ([2]; chloroform): slightly soluble
- Solubility ([2]; dioxane): soluble
- Solubility ([2]; ethanol): slightly soluble
- Solubility ([2]; methanol): slightly soluble
- Solubility ([2]; water): almost insoluble
- Minimum inhibitory concentration [3]: 0.1 µg/mL (≈ 0.0606 µM)
- Minimum inhibitory concentration [4]: 0.39 µg/mL (≈ 0.237 µM)
- ED50 [5]: 23.2 mg/kg
- Minimum inhibitory concentration [6]: 0.39 µg/mL (≈ 0.237 µM)
- Solubility ([7]; dilute alkaline solution): almost insoluble
- Solubility ([7]; water): almost insoluble
- Minimum inhibitory concentration [8]: 0.39 µg/mL (≈ 0.237 µM)
- Solubility [9]: 0.00015%
- Minimum inhibitory concentration [10]: 0.1 µg/mL (≈ 0.0606 µM)
